The conditions of data set [1]: human gut metagenome, 24 h, 2 µM.
The conditions of data set [2]: human gut metagenome, 24 h, 2 µM. This is another data set of the same source.
The conditions of data set [3]: human gut metagenome, 24 h, 2 µM. The source holds these as a separate data set.
For data set [4] the following is noted: human gut metagenome, 24 h, 2 µM. This is another data set of the same source.
The conditions of data set [5]: human gut metagenome, 24 h, 2 µM. This is another data set of the same source.
A short description of data set [6]: The drug is tested on WLS-370 corresponding to human gut metagenome with ENA study accession number: PRJEB37062 and ENA sample accession number: ERS12561793 for biotransformation under anaerobic condition. The drug concentrations were measured over 9 timepoints collected between 0 and 24 hours of incubation by liquid-chromatography-coupled mass spectrometry (LC–MS). The settings on record: 2 µM.

The conditions of data set [7]: human gut metagenome, 24 h, 2 µM. The source holds these as a separate data set.
Data set [8] can be described thus: The drug is tested on WLS-240 corresponding to human gut metagenome with ENA study accession number: PRJEB37062 and ENA sample accession number: ERS12561773 for biotransformation under anaerobic condition. The drug concentrations were measured over 9 timepoints collected between 0 and 24 hours of incubation by liquid-chromatography-coupled mass spectrometry (LC–MS). The settings on record: 2 µM.

The conditions of data set [9]: human gut metagenome, 24 h, 2 µM. This is another data set of the same source.
The nature of data set [10]: The drug is tested on WLS-082 corresponding to human gut metagenome with ENA study accession number: PRJEB37062 and ENA sample accession number: ERS12561751 for biotransformation under anaerobic condition. The drug concentrations were measured over 9 timepoints collected between 0 and 24 hours of incubation by liquid-chromatography-coupled mass spectrometry (LC–MS). The note with it: 2 µM.

The conditions of data set [11]: human gut metagenome, 24 h, 2 µM. This is another data set of the same source.
The conditions of data set [12]: human gut metagenome, 24 h, 2 µM. The source holds these as a separate data set.
Data set [13] in a line: The drug is tested on WLS-052 corresponding to human gut metagenome with ENA study accession number: PRJEB37062 and ENA sample accession number: ERS12561747 for biotransformation under anaerobic condition. The drug concentrations were measured over 9 timepoints collected between 0 and 24 hours of incubation by liquid-chromatography-coupled mass spectrometry (LC–MS). The settings on record: 2 µM.

The conditions of data set [14]: human gut metagenome, 24 h, 2 µM. This is another data set of the same source.
Data set [15] in a line: The drug is tested on WLS-220 corresponding to human gut metagenome with ENA study accession number: PRJEB37062 and ENA sample accession number: ERS12561769 for biotransformation under anaerobic condition. The drug concentrations were measured over 9 timepoints collected between 0 and 24 hours of incubation by liquid-chromatography-coupled mass spectrometry (LC–MS). The note with it: 2 µM.

Data set [16] is described as follows: The drug is tested on Z-001 corresponding to mouse gut metagenome with ENA study accession number: PRJEB37062 and ENA sample accession number: ERS12561801 for biotransformation under anaerobic condition. The drug concentrations were measured over 9 timepoints collected between 0 and 24 hours of incubation by liquid-chromatography-coupled mass spectrometry (LC–MS). The settings on record: 2 µM.

Data set [17] in a line: The drug is tested on Z-002 corresponding to rabbit gut metagenome with ENA study accession number: PRJEB37062 and ENA sample accession number: ERS12561802 for biotransformation under anaerobic condition. The drug concentrations were measured over 9 timepoints collected between 0 and 24 hours of incubation by liquid-chromatography-coupled mass spectrometry (LC–MS). The settings on record: 2 µM.
Also: call rule not given here.

As to `N#Cc1ccc2c(c1)N(CCCN1CCC(O)CC1)c1ccccc1S2` [PERICIAZINE], the “Bacterial Biotransformation” value is “Compound metabolized” in data set [1]; “Compound metabolized” in data set [2]; “Compound metabolized” in data set [3]; “Compound NOT metabolized” in data set [4]; “Compound NOT metabolized” in [5]; “Compound NOT metabolized” in data set [6]. Besides, the “Bacterial Biotransformation” value in [7] is listed as “Compound metabolized”; in [8] it was “Compound metabolized”; in data set [9] it was “Compound NOT metabolized”; in [10] it was “Compound NOT metabolized”; in [11], “Compound metabolized”; in [12], “Compound NOT metabolized”. Also, the “Bacterial Biotransformation” value in data set [13] is on record as “Compound metabolized”; in data set [14], “Compound NOT metabolized”; in [15] it was “Compound metabolized”.
`O=C([O-])C[C@H](O)C[C@H](O)/C=C/c1c(C2CC2)nc2ccccc2c1-c1ccc(F)cc1.O=C([O-])C[C@H](O)C[C@H](O)/C=C/c1c(C2CC2)nc2ccccc2c1-c1ccc(F)cc1.[Ca+2]` [PITAVASTATIN CALCIUM]: the “Bacterial Biotransformation” value in data set [1] is recorded as “Compound metabolized”; in data set [2], “Compound metabolized”; in data set [3] it was “Compound NOT metabolized”; in data set [4] it was “Compound metabolized”; in data set [5], “Compound metabolized”; in data set [6] it was “Compound NOT metabolized”. For the same molecule, the “Bacterial Biotransformation” value is reported as “Compound metabolized” in [7]; “Compound metabolized” in [8]; “Compound NOT metabolized” in [9]; “Compound metabolized” in [10]; “Compound NOT metabolized” in data set [11]; “Compound metabolized” in data set [12]. Moreover, the “Bacterial Biotransformation” value is “Compound metabolized” in [13], “Compound NOT metabolized” in [14] and “Compound metabolized” in [15].
Take `CC#CCn1c(N2CCC[C@@H](N)C2)nc2c1c(=O)n(Cc1nc(C)c3ccccc3n1)c(=O)n2C` [LINAGLIPTIN]: the “Bacterial Biotransformation” value in data set [1], in data set [2], in data set [3], in [4], in data set [5] and in data set [6] was “Compound NOT metabolized” in each case. In addition, the “Bacterial Biotransformation” value in data set [7], in [8], in [9], in data set [11], in data set [12] and in [14] was “Compound NOT metabolized” throughout. Further, in data set [15], the “Bacterial Biotransformation” value is on record as “Compound NOT metabolized”.
Turning to `CN1CCN(C2=Nc3ccccc3Oc3ccc(Cl)cc32)CC1.O=C(O)CCC(=O)O` [LOXAPINE SUCCINATE], the “Bacterial Biotransformation” value in data set [1], in data set [2], in [3], in [4], in [5] and in data set [6] was “Compound NOT metabolized” each time. Further, the “Bacterial Biotransformation” value in data set [7], in data set [8], in data set [9], in data set [10], in [11] and in [12] was “Compound NOT metabolized” throughout. Also, the “Bacterial Biotransformation” value in data set [13], in data set [14] and in [15] was “Compound NOT metabolized” throughout.
For the molecule `CN(C)CCc1c[nH]c2ccc(CS(=O)(=O)N3CCCC3)cc12` [ALMOTRIPTAN], the “Bacterial Biotransformation” value was “Compound NOT metabolized” in data set [1]; “Compound metabolized” in [2]; “Compound metabolized” in data set [3]; “Compound NOT metabolized” in [4]; “Compound NOT metabolized” in [5]; “Compound NOT metabolized” in data set [6]. The “Bacterial Biotransformation” value in [7] was “Compound metabolized”; in data set [8], “Compound metabolized”; in data set [9], “Compound NOT metabolized”; in [10], “Compound NOT metabolized”; in data set [11], “Compound metabolized”; in [12], “Compound NOT metabolized”. Besides, the “Bacterial Biotransformation” value in data set [13], in [14] and in data set [15] was “Compound NOT metabolized” each time.
Take `N[C@@H](Cc1ccc(N(CCCl)CCCl)cc1)C(=O)O`: the “Bacterial Biotransformation” value is recorded as “Compound metabolized” in data set [16]; “Compound metabolized” in data set [4]; “Compound NOT metabolized” in data set [6]; “Compound metabolized” in data set [7]; “Compound NOT metabolized” in data set [8]; “Compound metabolized” in data set [17]. Moreover, the “Bacterial Biotransformation” value in [9] is reported as “Compound NOT metabolized”; in [11], “Compound NOT metabolized”; in [12] it was “Compound metabolized”; in [13], “Compound metabolized”; in data set [14] it was “Compound NOT metabolized”; in data set [15] it was “Compound metabolized”.
Regarding `CCOC(=O)C1=C(C)NC(C)=C(C(=O)OC)C1c1cccc([N+](=O)[O-])c1` (stereo not given) [NITRENDIPINE], the “Bacterial Biotransformation” value in data set [1], in data set [2], in data set [3], in data set [4], in [5] and in data set [6] was “Compound metabolized” each time. For the same molecule, the “Bacterial Biotransformation” value in [7], in data set [8], in data set [9], in data set [10], in data set [11] and in data set [12] was “Compound metabolized” in each case. Further, the “Bacterial Biotransformation” value in [13], in [14] and in data set [15] was “Compound metabolized” each time.
For the molecule `Cc1nc(Nc2ncc(C(=O)Nc3c(C)cccc3Cl)s2)cc(N2CCN(CCO)CC2)n1` [DASATINIB ANHYDROUS], the “Bacterial Biotransformation” value is listed as “Compound metabolized” in data set [1]; “Compound metabolized” in [2]; “Compound metabolized” in data set [3]; “Compound NOT metabolized” in data set [4]; “Compound metabolized” in data set [5]; “Compound metabolized” in [6]. Also, the “Bacterial Biotransformation” value is on record as “Compound metabolized” in data set [7]; “Compound metabolized” in data set [8]; “Compound NOT metabolized” in [9]; “Compound metabolized” in [10]; “Compound metabolized” in [11]; “Compound metabolized” in [12]. Besides, the “Bacterial Biotransformation” value in [13] is “Compound metabolized”; in data set [14], “Compound NOT metabolized”; in data set [15], “Compound metabolized”.
